# Measurements as given in paper PMC10147690, “Human TRPV1 structure and inhibition by the analgesic SB-366791” (Nature Communications, 2023).
# Values joined by “and” are separate entries in the source; they are usually repeats but may differ in a detail not shown here. Equal entries are not always repeated. Where two headings read alike, the source gives them in different places.
# Assays:
# [1] = biological target: T1, hTRPV1 R557A (Homo sapiens, UniProt Q8NER1, R557A); experiment: whole-cell patch-clamp, capsaicin on hTRPV1 R557A; assay type: cell-based; conditions: 10 μM capsaicin
# T1 construct: expressed in transfected cells; host or cells: HEK293 cells
# [2] = test system: mouse TRPV1; set-up: method as in PMID 27638213; conditions: cited from earlier work
# [3] = biological target: T2, hTRPV1 (Homo sapiens, UniProt Q8NER1); experiment: whole-cell patch-clamp at -40 mV, SB-366791 inhibition of capsaicin-activated hTRPV1 current and recovery; assay type: cell-based; set-up: we used the same wild-type full-length construct to determine the hTRPV1 structure; expressed in transfected cells; host or cells: HEK293T ΔPIEZO1 cells, pIRES-EGFP plasmid; I (Cap), hTRPV1 peak current amplitude / I (SB), hTRPV1 peak current amplitude: unit not given here
# [4] = test system: rat TRPV1; set-up: method as in PMID 27638213; conditions: cited from earlier work
# [5] = biological target: T3, hTRPV1 Y511A (Homo sapiens, UniProt Q8NER1, Y511A); experiment: whole-cell patch-clamp, capsaicin on hTRPV1 Y511A; assay type: cell-based; conditions: not shown
# T3 construct: expressed in transfected cells; host or cells: HEK293T ΔPIEZO1 cells, pIRES-EGFP plasmid
# [6] = test system: rat TRPV1 Y511A; conditions: cited from earlier work
# [7] = test system: squirrel TRPV1; set-up: method as in PMID 27638213; conditions: cited from earlier work
# [8] = biological target: T4, hTRPV1 E570A (Homo sapiens, UniProt Q8NER1, E570A); experiment: whole-cell patch-clamp, capsaicin on hTRPV1 E570A; assay type: cell-based; conditions: 10 μM capsaicin
# T4 construct: expressed in transfected cells; host or cells: HEK293 cells
# [9] = test system: glutamatergic transmission in a subset of neurons; conditions: pre-synaptic TRPV1-dependent mechanism following peripheral inflammation; cited from earlier work
# [10] = test system: opiate-mediated behaviors; set-up: method as in PMID 27730727; conditions: rat studies; cited from earlier work
# [11] = biological target: T5, hTRPV1 T550A (Homo sapiens, UniProt Q8NER1, T550A); experiment: whole-cell patch-clamp, SB-366791 inhibition of pH 5-induced current, T550A; assay type: cell-based
# T5 construct: we used the same wild-type full-length construct to determine the hTRPV1 structure; expressed in transfected cells; host or cells: HEK293T ΔPIEZO1 cells, pIRES-EGFP plasmid
# [12] = biological target: T1, hTRPV1 R557A; experiment: whole-cell patch-clamp, SB-366791 on pH-induced current, R557A; assay type: cell-based; conditions: pH 5
# [13] = biological target: T6, hTRPV1 L515A (Homo sapiens, UniProt Q8NER1, L515A); experiment: whole-cell patch-clamp, SB-366791 inhibition of pH 5-induced current, L515A; assay type: cell-based; conditions: for I / Imax: +80 mV, individual cells
# T6 construct: we used the same wild-type full-length construct to determine the hTRPV1 structure; expressed in transfected cells; host or cells: HEK293T ΔPIEZO1 cells, pIRES-EGFP plasmid
# [14] = biological target: T7, hTRPV1 L547R (Homo sapiens, UniProt Q8NER1, L547R); experiment: whole-cell patch-clamp, SB-366791 inhibition of pH 5-induced current, L547R; assay type: cell-based
# T7 construct: we used the same wild-type full-length construct to determine the hTRPV1 structure; expressed in transfected cells; host or cells: HEK293T ΔPIEZO1 cells, pIRES-EGFP plasmid
# [15] = biological target: T8, hTRPV1 E693A (Homo sapiens, UniProt Q8NER1, E693A); experiment: whole-cell patch-clamp, SB-366791 inhibition of pH 5-induced current, E693A; assay type: cell-based; conditions: for I / Imax: individual cells
# T8 construct: we used the same wild-type full-length construct to determine the hTRPV1 structure; expressed in transfected cells; host or cells: HEK293T ΔPIEZO1 cells, pIRES-EGFP plasmid
# [16] = biological target: T3, hTRPV1 Y511A; experiment: whole-cell patch-clamp, SB-366791 inhibition of pH 5-induced current, Y511A; assay type: cell-based; conditions: for I / Imax: individual cells
# [17] = test system: panel of 47 different targets, including G-protein-coupled receptors and voltage-gated calcium-channels; conditions: cited from earlier work
# [18] = biological target: T2, hTRPV1; experiment: whole-cell patch-clamp, SB-366791 inhibition of pH 5-induced current, wild-type hTRPV1; assay type: cell-based; set-up: we used the same wild-type full-length construct to determine the hTRPV1 structure; expressed in transfected cells; host or cells: HEK293T ΔPIEZO1 cells, pIRES-EGFP plasmid
# [19] = test system: bone cancer pain; conditions: cited from earlier work
# [20] = biological target: T2, hTRPV1; conditions: no apparent change in the maximal response; cited from earlier work
# [21] = biological target: T4, hTRPV1 E570A; experiment: whole-cell patch-clamp, SB-366791 on pH-induced current, E570A; assay type: cell-based; conditions: pH 5
# [22] = test system: acute pain; conditions: co-administered with a calcium channel blocker; mice; cited from earlier work
# [23] = biological target: the molecule itself; experiment: cryo-EM structure; apo hTRPV1 in cNW11 nanodiscs with soybean lipids or POPC:POPE:POPG (3:1:1); 150 mM NaCl, 20 mM Tris pH 8.0, 1 mM bME
molecule,measurement,setting,value
COc1cc(CNC(=O)CCCC/C=C/C(C)C)ccc1O [capsaicin],currents induced by capsaicin,[1],did not induce any currents
same,EC50,[2],776 ± 52 nM
same,"I (Cap), hTRPV1 peak current amplitude","[3]; Fig 2b, 1 µM capsaicin, -40 mV, individual cells, listed as Cap",0.380 and 0.430 and 4.800 and 2.000 and 1.600
same,EC50,[4],527 ± 53 nM
same,sensitivity to capsaicin,[5],insensitive
same,sensitivity to capsaicin,[6],insensitive
same,EC50,[7],529 ± 32 nM
same,currents induced by capsaicin,[8],did not induce any currents
"COc1cccc(NC(=O)/C=C/c2ccc(Cl)cc2)c1 [SB-366791, N-(3-methoxyphenyl)−4-chlorocinnamide]",effect on glutamatergic transmission,[9],inhibiting glutamatergic transmission
same,effect on opiate-mediated behaviors,[10],impair opiate-mediated behaviors
same,sensitivity to inhibition by the blocker,[11],completely insensitive
same,inhibition of current induced by changes in pH,[12],did not induce any inhibition
same,sensitivity to inhibition by the blocker,[13],completely insensitive
same,I / Imax,[13]; SB-366791 0.0001 μM,1.151 and 1.003 and 0.775 and 1.067
same,I / Imax,[13]; SB-366791 0.001 μM,0.856 and 0.881 and 0.592 and 0.984
same,I / Imax,[13]; SB-366791 0.01 μM,0.762 and 0.808 and 0.507 and 0.880
same,I / Imax,[13]; SB-366791 0.1 μM,0.817 and 0.939 and 0.604 and 0.943
same,I / Imax,[13]; SB-366791 1 μM,0.888 and 1.233 and 0.959 and 1.206
same,I / Imax,[13]; SB-366791 10 μM,0.734 and 1.125 and 1.046 and 1.211
same,inhibition of capsaicin-activated hTRPV1,"[3]; 10 µM SB-366791 co-applied with 1 µM capsaicin, -40 mV",complete inhibition
same,"I (SB), hTRPV1 peak current amplitude","[3]; Fig 2b, 10 µM SB-366791 in the presence of 1 µM capsaicin, 10 s after SB-366791 application, individual cells, listed as SB",0.010 and 0.020 and 0.060 and 0.011
same,sensitivity to inhibition by the blocker,[14],completely insensitive
same,I / Imax,"[15]; SB-366791 0.0001 μM, pH 5, +80 mV",0.860 (2×) and 0.830 and 0.980 and 0.850 and 0.890
same,I / Imax,"[15]; SB-366791 0.01 μM, pH 5, +80 mV",0.820 and 0.780 and 0.880 and 0.830
same,IC50,"[15]; pH 5, +80 mV, mean ± SEM, n = 6, read-out: IC50 of SB-366791",100 ± 11 nM
same,IC50,"[15]; pH 5, Hill fits of individual cells, read-out: SB-366791 IC50",121 nM and 70 nM and 137 nM and 75 nM and 92 nM and 103 nM
same,SB-366791-resistant fraction,"[15]; pH 5, individual cells",0.417 and 0.362 and 0.602 and 0.396 and 0.427 and 0.420
same,fraction of blocker-insensitive current,"[15]; pH 5, mean ± SEM, n = 6",0.440 ± 0.034
same,IC50,"[15]; response to reviewers, read-out: inhibition by SB-366791, IC50",100 nM
same,IC50,"[16]; +80 mV, mean ± SEM, n = 7",253 ± 75 nM
same,I / Imax,"[16]; SB-366791 0.0001 μM, +80 mV",0.951 and 0.974 and 0.889 and 1.022
same,I / Imax,"[16]; SB-366791 0.001 μM, +80 mV",0.916 and 0.924 and 0.887 and 0.985
same,I / Imax,"[16]; SB-366791 0.01 μM, +80 mV",0.893 and 0.810 and 0.838 and 0.939
same,I / Imax,"[16]; SB-366791 0.1 μM, +80 mV",0.831 (2×) and 0.718 (2×)
same,I / Imax,"[16]; SB-366791 1 μM, +80 mV",0.638 and 0.474 and 0.443 and 0.511
same,I / Imax,"[16]; SB-366791 10 μM, +80 mV",0.537 and 0.399 and 0.380 and 0.562
same,proportion of blocker-resistant current,"[16]; mean ± SEM, n = 7",0.490 ± 0.070
same,effect on a panel of 47 different targets,[17],little or no effect
same,IC50,"[18]; WT, pH 5, Hill fits of individual cells, read-out: SB-366791 IC50",5.41 nM and 45 nM and 38 nM and 6.46 nM and 26 nM and 13 nM and 15 nM
same,SB-366791-resistant fraction,"[18]; WT, pH 5, individual cells",0.177 and 0.291 and 0.285 and 0.295 and 0.181 and 0.106 and 0.205
same,IC50,"[18]; WT, response to reviewers, read-out: inhibition by SB-366791, IC50",21 nM
same,IC50,"[18]; wild-type, pH 5, +80 mV, mean ± SEM, n = 7, read-out: IC50 of SB-366791",21 ± 6 nM
same,proportion of blocker-resistant current,"[18]; wild-type, pH 5, mean ± SEM, n = 7",0.220 ± 0.027 and 0.22 ± 0.03
same,effect on analgesia by systemic morphine,[19],effectively potentiate the analgesic effects of systemic morphine
same,effect on capsaicin concentration dependence of hTRPV1-mediated calcium uptake,[20],rightward shift
same,inhibition of current induced by changes in pH,[21],did not induce any inhibition
same,synergistic increase of antinociceptive effect,[22],15 fold
"human TRPV1 (natural protein, UniProt Q8NER1 1-839, looked up, human TRPV1, wild-type full-length construct; residues 1-839 by the printed numbers (models hold 115-769 or 199-754); the tags of the construct are not described; Homotetramer; Apo samples in cNW11 nanodiscs, the SB-366791 sample in GDN detergent; also called hTRPV1; hTRPV1Apo; source: HEK 293S GnTI- cells transduced with baculovirus, purified (strep resin, SEC)) MKKWSSTDLGAAADPLQKDTCPDPLDGDPNSRPPPAKPQLSTAKSRTRLFGKGDSEEAFPVDCPHEEGELDSCPTITVSPVITIQRPGDGPTGARLLSQDSVAASTEKTLRLYDRRSIFEAVAQNNCQDLESLLLFLQKSKKHLTDNEFKDPETGKTCLLKAMLNLHDGQNTTIPLLLEIARQTDSLKELVNASYTDSYYKGQTALHIAIERRNMALVTLLVENGADVQAAAHGDFFKKTKGRPGFYFGELPLSLAACTNQLGIVKFLLQNSWQTADISARDSVGNTVLHALVEVADNTADNTKFVTSMYNEILMLGAKLHPTLKLEELTNKKGMTPLALAAGTGKIGVLAYILQREIQEPECRHLSRKFTEWAYGPVHSSLYDLSCIDTCEKNSVLEVIAYSSSETPNRHDMLLVEPLNRLLQDKWDRFVKRIFYFNFLVYCLYMIIFTMAAYYRPVDGLPPFKMEKTGDYFRVTGEILSVLGGVYFFFRGIQYFLQRRPSMKTLFVDSYSEMLFFLQSLFMLATVVLYFSHLKEYVASMVFSLALGWTNMLYYTRGFQQMGIYAVMIEKMILRDLCRFMFVYIVFLFGFSTAVVTLIEDGKNDSLPSESTSHRWRGPACRPPDSSYNSLYSTCLELFKFTIGMGDLEFTENYDFKAVFIILLLAYVILTYILLLNMLIALMGETVNKIAQESKNIWKLQRAITILDTEKSFLKCMRKAFRSGKLLQVGYTPDGKDDYRWCFRVDEVNWTTWNTNVGIINEDPGNCEGVKRTLSFSLRSSRVSGRHWKNFALVPLLREASARDRQSAQPEEVYLRQFSGSLKPEDAEVFKSPAASGEK",stoichiometry N,[23],4
